From patent US5643954A, “Method of preventing and alleviating stress in a healthy mammal in need thereof” (priority 1993, dated 1997)
Like-named read-outs stand apart in the source and are kept apart here.

Legend:
[1] = system: Corazol twitches; experiment: comparative interaction test with Corazol, rats; format: in vivo; details: M ± m
[2] = system: hexenal sleep; experiment: comparative interaction test with hexenal, rats; format: in vivo; details: M ± m
[3] = system: EEG; details: M
[4] = system: electric painful irritation; details: 60 min before experiment
[5] = system: Corazol convulsions; experiment: testings with Corazolin (Corazol), mice; format: in vivo; details: for Corazol latent period / Corazol life-time: M ± m
[6] = system: Corazol twitch paroxysm; details: for Threshold doses Corazol 1% solution, death of animal / Threshold doses Corazol 1% solution, start of twitch: M ± m
[7] = system: EEG; details: 1,5 hrs after a dose
[8] = intragastric, 20 min before Corazol, in words
[9] = 40 mg/kg week-long introduction
[10] = 200 mg/kg single administration

Substance: aminoacetic acid [claimed preparation]
- Corazol twitches, latent period ([1]; 20 mg/kg): 41.0 ± 0.3 min
- Corazol twitches, latent period ([1]; 80 mg/kg): 45.0 ± 0.9 min
- Corazol twitches, latent period ([1]; 200 mg/kg): 42.5 ± 0.7 min
- Hexanal sleep duration ([2]; 2 mg/kg): 36.0 ± 1.8 min
- Hexanal sleep duration ([2]; 40 mg/kg): 32.0 ± 1.9 min
- Hexanal sleep duration ([2]; 200 mg/kg): 28.0 ± 1.9 min
- Attention mobilization: reaction expression ([3]; 1,5 hrs after a dose): 2.82 arbitrary units
- Eye opening-closing reaction: biopotential amplitude decline ([3]; 1,5 hrs after a dose): 25.40 mV
- Eye opening-closing reaction: response ([3]; 1,5 hrs after a dose): 3.71 arbitrary units
- HV-reaction (test with hyperventilation): reaction expression ([3]; 1,5 hrs after a dose): 2.07 arbitrary units
- HV-reaction: after-effect ([3]; 1,5 hrs after a dose): 12.40 s
- Presence of errors in count ([3]; 1,5 hrs after a dose): 28.60%
- Repeated response to eye opening-closing: reaction expression ([3]; 1,5 hrs after a dose): 3.73 arbitrary units
- Sonic signal count: reaction expression ([3]; 1,5 hrs after a dose): 3.64 arbitrary units
- Sonic signal count: reaction suppression ([3]; 1,5 hrs after a dose): 5.79 sonic signals
- Attention mobilization: reaction expression ([3]; after two-week course): 3.21 arbitrary units
- Eye opening-closing reaction: biopotential amplitude decline ([3]; after two-week course): 23.60 mV
- Eye opening-closing reaction: response ([3]; after two-week course): 3.07 arbitrary units
- HV-reaction (test with hyperventilation): reaction expression ([3]; after two-week course): 2.64 arbitrary units
- HV-reaction: after-effect ([3]; after two-week course): 20.70 s
- Presence of errors in count ([3]; after two-week course): 33.00%
- Repeated response to eye opening-closing: reaction expression ([3]; after two-week course): 3.00 arbitrary units
- Sonic signal count: reaction expression ([3]; after two-week course): 3.79 arbitrary units
- Sonic signal count: reaction suppression ([3]; after two-week course): 6.57 sonic signals
- emotional reaction (squeak) [4]: did not exert influence on an emotional reaction
- increase of aggression reaction threshold [4]: 5±0.8 v
- number of fights [4]: reduced the number of fights
- strengthening of motor component (jumps) [4]: 1-1.5 points
- Corazol tonico-extensor phase ([5]; 2 mg/kg intragastric): 100 min
- Corazol latent period ([5]; 2 mg/kg intragastric): 39.0 ± 0.6 s
- Corazol life-time ([5]; 2 mg/kg intragastric): 2.5 ± 0.7 min
- Corazol tonico-extensor phase ([5]; 20 mg/kg intragastric): 80 min
- Corazol latent period ([5]; 20 mg/kg intragastric): 41.0 ± 0.3 s
- Corazol life-time ([5]; 20 mg/kg intragastric): 2.8 ± 0.8 min
- Corazol tonico-extensor phase ([5]; 40 mg/kg intragastric): 70 min
- Corazol latent period ([5]; 40 mg/kg intragastric): 49.0 ± 0.7 s
- Corazol life-time ([5]; 40 mg/kg intragastric): 2.4 ± 0.7 min
- Corazol tonico-extensor phase ([5]; 80 mg/kg intragastric): 70 min
- Corazol latent period ([5]; 80 mg/kg intragastric): 45.0 ± 0.9 s
- Corazol life-time ([5]; 80 mg/kg intragastric): 3.1 ± 0.9 min
- Corazol tonico-extensor phase ([5]; 200 mg/kg intragastric): 70 min
- Corazol latent period ([5]; 200 mg/kg intragastric): 42.5 ± 0.7 s
- Corazol life-time ([5]; 200 mg/kg intragastric): 2.4 ± 0.5 min
- latent period of Corazol convulsions [5, 8]: increased latent period of Corazol convulsions
- tonico-extensor component of a twitch paroxysm [5, 8]: some depression of the tonico-extensor component of a twitch paroxysm
- Threshold doses Corazol 1% solution, death of animal ([6]; 2 mg/kg single administration): 0.119 ± 0.006 mL
- Threshold doses Corazol 1% solution, start of twitch ([6]; 2 mg/kg single administration): 0.095 ± 0.004 mL
- Threshold doses Corazol 1% solution, death of animal ([6]; 2 mg/kg week-long introduction): 0.119 ± 0.004 mL
- Threshold doses Corazol 1% solution, start of twitch ([6]; 2 mg/kg week-long introduction): 0.090 ± 0.007 mL
- Threshold doses Corazol 1% solution, death of animal ([6]; 40 mg/kg single administration): 0.130 ± 0.006 mL
- Threshold doses Corazol 1% solution, start of twitch ([6]; 40 mg/kg single administration): 0.091 ± 0.005 mL
- Threshold doses Corazol 1% solution, death of animal [6, 9]: 0.163 ± 0.005 mL
- Threshold doses Corazol 1% solution, start of twitch [6, 9]: 0.095 ± 0.005 mL
- Threshold doses Corazol 1% solution, death of animal ([6]; 80 mg/kg single administration): 0.135 ± 0.007 mL
- Threshold doses Corazol 1% solution, start of twitch ([6]; 80 mg/kg single administration): 0.095 ± 0.004 mL
- Threshold doses Corazol 1% solution, death of animal [6, 10]: 0.130 ± 0.08 mL
- Threshold doses Corazol 1% solution, start of twitch [6, 10]: 0.096 ± 0.007 mL
- Corazol threshold dosage ([6]; in words): somewhat increasing a Corazol threshold dosage
- EEG variation a) [7]: 2.89 arbitrary units
